{"source": "patent US10738080B2", "about": "“Inhibitors of beta integrin-G protein alpha subunit binding interactions” (priority 2010, dated 2020)", "key": {"[1]": {"system": "mouse platelets", "experiment": "Mouse platelet spreading on immobilized fibrinogen", "format": "cell-based"}, "[2]": {"system": "c-Src", "procedure": "Two different Gα13 siRNA target sequences were used: siRNA #1, 5′-[…] (SEQ ID NO: 56); siRNAi #2, 5′-[…] (SEQ ID NO: 57). Scrambled siRNA sequence is: 5′-[…]-3′ (SEQ ID NO: 58). These sequences are conserved in hamsters and mice. Lentivirus was prepared by co-transfection of pLL3.7-scrambled siRNA or pLL3.7-Gα13 siRNA (#1 and #2) with pLP1, pLP2 and pLP/VSVG plasmids (Invitrogen) into ˜90% confluent 293FT cells using Lipofectamine 2000. 48 hours after transfection, cell culture medium containing virus was filtered, titered and stored at −80° C. Bone manow cells from 6-8 week old healthy C57/BL mice were isolated aseptically from femurs and tibias. Stem cells were negatively selected by MACS Lineage cell depletion kit (Miltenyi Biotec) and cultured in RPMI 1640 complete medium with 10 ng/ml interleukin-3, 10 ng/ml interleukin-6, 10 ng/ml granulocyte-macrophage colony stimulating factor (GM-CSF), and 100 ng/ml stem cell factor (SCF). 50 multiplicity of infection (MOI) lenti-virus was used to infect mice bone marrow stem cells twice with 6 μg/ml polybrene. 48 hours after infection, 5×10^6 stem cells resuspended in PBS were transplanted by retrobulbar injection into lethally irradiated (10.5 Gy) C57/BL mice one day after irradiation (S11). The siRNA-resistant mutants of Gα13 were generated by PCR."}, "[3]": {"system": "RhoA", "conditions": "mouse platelets from siRNA-transfected stem cells", "description": "(FIG. 6B) Scrambled siRNA, Gα13 siRNA #1- and Gα13 siRNA #2-transfected platelets were allowed to adhere to immobilized fibrinogen for the indicated time, and analyzed for c-Src activation and RhoA activity.\n(§1) Platelets in modified Tyrode's buffer or adherent on immobilized fibrinogen were lysed quickly in 0.8 ml lysis buffer (50 mM Tris, pH 7.4, 10 mM MgCl2, 500 mM NaCl, 1% Triton X-100, 0.1% SDS, 0.5% deoxycholate, 10 μg/ml each of aprotinin and leupeptin, 1 mM phenylmethylsulfonyl fluoride, and 200 μM sodium vanadate). Lysates were cleared by centrifugation at 18,000 g for 2 minutes at 4° C., and the supernatant was incubated for 1 hour with 30 μg purified GST-Rhotekin RhoA-binding domain fusion protein (GST-RBD) bound to glutathione-Sepharose beads (S10). Samples were washed three times using washing buffer (50 mM Tris, pH 7.4, 10 mM MgCl2, 150 mM NaCl, 1% Triton X-100) and then immunoblotted with an anti-RhoA monoclonal antibody. Cell lysates were also immunoblotted with anti-RhoA as loading control."}, "[4]": {"system": "human platelets", "format": "cell-based", "procedure": "The clots were photographed at various time points. […] Statistical significance was determined using t-test.\nStudies using human platelets were approved by institutional review board of University of Illinois at Chicago.\nCoverslides were pre-coated with 100 μg/ml fibrinogen and blocked with 5% BSA in PBS. 300 μl αIIbβ3-expressing CHO cells (expressing WT or mutant integrins; 1×10^5/ml) or platelets (1×10^7/ml) suspended in Tyrode's buffer were added to coverslides and incubated at 37° C. for various lengths of time. Cells were fixed with 4% paraformaldehyde (PFA) for 10 minutes and permeabilized with 0.1% Triton X-100 in PBS for 2 minutes. After blocking with 5% BSA for 10 minutes, coverslides were incubated with 0.2 μg/ml mAb 15, or Alexa Fluor-546 conjugated phalloidin. For mouse platelets re-express wild type β3 or the AAA mutant of β3, β3 was immuno-stained with the anti-β3 monoclonal antibody MAb 15 and Alexa Fluor-546 conjugated phalloidin. The slides were scanned with a Zeiss LSM5 10 META confocal microscope as previously described^11"}, "[5]": {"system": "human platelets", "procedure": "Platelet aggregation assays were carried out as follows: Platelet aggregation and secretion was measured in a turbidometric platelet aggregometer (Chronolog) at 37° C. with stirring (1000 rpm). Washed platelets (3×10^8/ml) in modified Tyrode's buffer were stimulated with thrombin (Enzyme Research Laboratories). For talin knockdown platelet aggregation assay stimulated with manganese and ADP, manganese and ADP was mixed prior to experiment to achieve final concentration of 1 mM manganese and 5 μM ADP in reaction tube. Aggregation traces shown are representative of at least three independent experiments.\nPlatelet aggregation assays were performed with myristoylated peptide mP5, myristoylated peptide of SEQ: ID NO: 87, or their respective scarmbled control peptides, as essentially described herein. Briefly, washed human platelets were preincubated with 25, 50, 100, 250, or 500 μM peptide solubilized in DMSO."}, "[6]": {"conditions": "C57BL/6 mice, FeCl3 carotid artery injury, compared to scrambled control ERAFEE", "description": "In this study, adult mice are anesthetized by intraperitoneal injection of pentobarbital (120 mg/kg). The left common carotid artery is surgically exposed and a miniature Doppler flow probe (Model 0.5VB; Transonic Systems, Ithaca, N.Y.) is placed on the surface of the artery. After adding 0.9% sodium chloride solution in the surgical wound to allow Doppler monitoring, baseline blood flow is recorded using a Transonic flowmeter. Thereafter, sodium chloride solution is removed and filter paper (round, 1.0 mm in diameter) saturated with 10% FeCl3 is applied to the surface of the carotid artery immediately proximal to the flow probe. After 3 minutes, the filter paper is removed, saline solution is again administered to the wound, and carotid blood flow is monitored. If occlusive thrombosis occurs to the injured carotid artery, blood flow is reduced to zero. ExE motif peptide micelles and controls are injected i.v. via the tail vein in C57BL/6 mice, then tested for occlusive thrombosis using this model."}, "[7]": {"target": "T1, Gα13 binding to β3 (Homo sapiens, UniProt P05106+Q14344)", "T1 construct": "Proteins from platelet lysates were immunoprecipitated with control IgG or antibody to Gα13; The integrin αIIbβ3 was co-immunoprecipitated by anti-Gα13 antibody, but not control IgG, from platelet lysates; endogenous in cells; host or cells: washed human platelets (lysates)", "T1 sequence (Q14344 1-377)": "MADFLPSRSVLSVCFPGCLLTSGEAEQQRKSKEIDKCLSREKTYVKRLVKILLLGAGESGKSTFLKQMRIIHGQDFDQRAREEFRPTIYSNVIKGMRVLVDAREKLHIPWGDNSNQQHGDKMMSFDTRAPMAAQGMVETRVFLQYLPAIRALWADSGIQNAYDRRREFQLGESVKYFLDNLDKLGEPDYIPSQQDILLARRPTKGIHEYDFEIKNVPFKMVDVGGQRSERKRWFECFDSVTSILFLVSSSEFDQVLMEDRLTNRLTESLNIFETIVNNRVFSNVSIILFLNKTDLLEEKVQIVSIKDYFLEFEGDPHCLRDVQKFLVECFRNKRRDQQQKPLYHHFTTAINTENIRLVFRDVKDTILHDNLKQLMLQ", "T1 sequence (P05106 27-788)": "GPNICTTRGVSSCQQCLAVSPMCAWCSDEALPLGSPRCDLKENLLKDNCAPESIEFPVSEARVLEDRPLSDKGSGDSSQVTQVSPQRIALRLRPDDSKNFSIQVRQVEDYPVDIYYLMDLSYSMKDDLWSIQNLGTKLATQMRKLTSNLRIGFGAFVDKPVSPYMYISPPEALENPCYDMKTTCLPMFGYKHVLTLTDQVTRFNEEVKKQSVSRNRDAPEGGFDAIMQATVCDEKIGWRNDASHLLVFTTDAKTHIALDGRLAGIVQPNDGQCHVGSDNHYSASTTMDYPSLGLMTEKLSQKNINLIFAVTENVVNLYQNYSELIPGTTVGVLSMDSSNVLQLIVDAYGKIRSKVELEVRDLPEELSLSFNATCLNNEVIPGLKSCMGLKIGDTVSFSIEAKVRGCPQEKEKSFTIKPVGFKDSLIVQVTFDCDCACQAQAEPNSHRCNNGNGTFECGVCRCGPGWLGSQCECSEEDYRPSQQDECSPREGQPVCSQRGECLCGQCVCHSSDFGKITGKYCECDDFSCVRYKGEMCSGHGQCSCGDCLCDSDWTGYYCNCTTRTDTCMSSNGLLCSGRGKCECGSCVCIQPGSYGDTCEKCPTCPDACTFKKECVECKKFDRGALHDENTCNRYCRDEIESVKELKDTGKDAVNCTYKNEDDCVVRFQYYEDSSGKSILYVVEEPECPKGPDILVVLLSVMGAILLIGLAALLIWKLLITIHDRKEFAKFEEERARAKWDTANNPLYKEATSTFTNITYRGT", "experiment": "Co-immunoprecipitation of β3 with Gα13 from platelet lysates", "conditions": "platelets stimulated with thrombin, 2 mM RGDS", "procedure": "As previously described (S7), cell lysates were incubated with 2 μg/ml of D57 (antibody to integrin αIIbβ3), LJP3 (antibody against GPIb), or mouse IgG, and further incubated with protein G-conjugated Sepharose beads. Cell lysates were also incubated with rabbit anti-Gα13 IgG antibody (1.5 μg/ml) or an equal amount of rabbit IgG and further incubated with protein A-conjugated Sepharose beads. After 3-6 washes with lysis buffer, immunoprecipitates were analyzed by SDS-polyacrylamide gel electrophoresis and Western blots with antibodies against β3 (MAb15), GPIb (anti-IbαC (S8)) or Gα13. In some experiments, 1 μM GDP, 1 μM GTPγS or 30 μM AlF4^− were added to the reaction to assess the effect of Gα13 activation on integrin binding. In other experiments, 250 μM mSRI or scrambled control peptide was incubated with platelet lysates prior to immunoprecipitation. GST bead pull down analysis was previously described (S7). Purified Gα13 was incubated with glutathione beads-bound to GST, GST-β1CD or GST-β3 CD at 4° C. overnight. Bead-bound proteins were analyzed by immunoblotting. For GST-β3CD cDNA construction, integrin-β3 cytoplasmic domain (716-762) cDNA was generated by PCR and cloned into pGEX-4T2 vector using Bam HI and Xho I restriction sites. The forward primer is 5′-[…]-3′ (SEQ ID NO: 48); the reverse primer is 5′-[…]-3′ (SEQ ID NO: 49). For GST-I31CD cDNA construction, β1 cytoplasmic domain (752-798) cDNA was amplified by PCR and cloned into pGEX-4T1 vector using EcoRI and Xho I restriction sites. The primer sequences are: (1) forward: 5′-[…]-3′ (SEQ ID NO: 50); (2) reverse: […]-3′ (SEQ ID NO: 51). GST, GST-β1CD and GST-β3CD were purified from BL21 (DE3) E. coli using glutathione-conjugated beads.\nCell lysates were incubated with rabbit anti-Gα13 IgG (1.5 μg/ml), anti-integrin β3 rabbit serum (5 μl/ml) or an equal amount of rabbit IgG or pre-immune serum at 4° C. overnight, and subsequently with protein A-conjugated Sepharose beads for 1 hour. For the integrin β3 clustering experiment, human platelets (3×10^8) were stimulated with 0.025 U/ml α-thrombin for 2 minutes at room temperature (to avoid platelet aggregation) with or without 2 mM RGDS, then incubated with 5 μl anti-integrin β3 8053 rabbit serum at room temperature for 1 hour, and 5 μg goat anti-rabbit secondary antibody for another 1 hour. Platelets were then solubilized in modified RIPA Buffer. For the un-clustering control and pre-immune serum control, cells were solubilized in modified RIPA Buffer first, than incubated with 5 μl 8053 serum or pre-immune serum. After 3-6 washes with lysis buffer, immunoprecipitates were analyzed by SDS-polyacrylamide gel electrophoresis and Western blots using antibodies against β3, talin, or Gα13. In some experiments, 500 μM control or inhibitor peptides, mP5, mP7 and mP13 were incubated with platelet lysates prior to immunoprecipitation, or 2 mM RGDS was added into washed human platelets before stimulation by 0.025 U/ml α-thrombin. GST bead pull down analysis was previously described^8. Purified Gα13 or MBP-talin head were incubated with glutathione beads-bound to GST or GST-β3CD at 4° C. overnight. Bead-bound proteins were analyzed by immunoblotting."}, "[8]": {"system": "RhoA", "experiment": "RhoA activity assay (GST-RBD pull down) in platelets", "format": "cell-based, human", "conditions": "platelets stimulated with thrombin, 2 mM RGDS", "description": "as §1"}}}
{"molecule": "5′-GGAGATCGACAAATGCCTG [Gα13 siRNA #2]", "values": [{"measurement": "platelet spreading", "setting": "[1]", "result": "inhibited"}, {"measurement": "c-Src activation", "setting": "[2]", "result": "inhibited"}, {"measurement": "activation of RhoA", "setting": "[3]", "result": "accelerated"}]}
{"molecule": "5′-GTCCACCTTCCTGAAGCAG [Gα13 siRNA #1]", "values": [{"measurement": "platelet spreading", "setting": "[1]", "result": "inhibited"}, {"measurement": "c-Src activation", "setting": "[2]", "result": "inhibited"}, {"measurement": "activation of RhoA", "setting": "[3]", "result": "accelerated"}]}
{"molecule": "C[C@@H](N)[C@H]1CC[C@H](C(=O)Nc2ccncc2)CC1", "note": "[Y27632, reference compound]", "values": [{"measurement": "inhibitory effect of mP5 on platelet spreading (reversal)", "setting": "[4]; platelets treated with mP5", "result": "reversed"}, {"measurement": "inhibitory effect of mSRI on platelet spreading (reversal)", "setting": "[4]; platelets treated with mSRI", "result": "reversed"}, {"measurement": "inhibitory effect of Gα13 depletion on platelet spreading (reversal)", "setting": "[1]; Gα13-depleted mouse platelets", "result": "reversed"}]}
{"molecule": "CC(=O)Oc1ccccc1C(=O)O", "note": "[aspirin, reference compound]", "values": [{"measurement": "platelet spreading on fibrinogen", "setting": "[1]; mouse platelets pre-incubated with 1 mM aspirin", "result": "did not affect"}]}
{"molecule": "FEEERA", "values": [{"measurement": "inhibition of platelet aggregation, doses compared to the mP5 peptide", "setting": "[5]; 25-500 μM peptide in DMSO, 0.09 U/ml thrombin, washed human platelets", "result": "inhibit platelet aggregation at lower doses"}, {"measurement": "concentration required for the maximal effect on in vitro platelet aggregation", "setting": "[5]; preliminary dose-dependent study, DMSO solution vs micellar formulation", "result": 250, "unit": "µM"}, {"measurement": "time to occlusion", "setting": "[6]", "result": "increased"}]}
{"molecule": "RGDS [reference compound]", "values": [{"measurement": "Thrombin-stimulated binding of Gα13 to αIIbβ3", "setting": "[7]", "result": "inhibited"}, {"measurement": "RhoA inhibition simultaneous with thrombin-stimulated Gα13-αIIbβ3 binding", "setting": "[8]", "result": "inhibited"}]}
